Test results from patent US20130183322A1, “IMMUNOSUPPRESSIVE DRUG COMBINATION FOR A STABLE AND LONG TERM ENGRAFTMENT” (YEDA RESEARCH AND DEVELOPMENT CO., LTD., priority 2011, published 2013).

Key:
[1] = system: C3H/Hej (H-2Kk) recipient mice; assay: Chimerism induction: allogeneic T-depleted BM transplant under non myeloablative conditioning and co-stimulatory blockade; format: in vivo
Description: C3H/Hen recipient mice were conditioned with busulfan (2×30 mg/Kg) and T cell debulking with […] anti-CD4 and anti-CD8. Post transplant treatment included […] CTLA4/FC, […] anti-CD48, and 0.1 mg FTY720 administered at the indicated time points.
Non myeloablative conditioning and co-stimulatory blockade Protocol: C3H/Hej (H-2K^k) recipient mice were conditioned with 30 mg/kg IV Busulfex on days −3 and −2 following T cell debulking on day −6 with 300 μg anti-CD4 (Bio Express, clone Gk1.5) and anti-CD8 (Bio Express, cone 53.6.72) antibodies. On day 0, 25×10^6 T-depleted BM cells from Balb/c-Nude (H-2D^d) donors were transplanted and subjected to co-stimulation blockade consisting of 200 μg CTLA4/FC (Chimerigen Laboratories), 250 μg anti-CD48 (Bio Express, clone HM 48) and 0.1 mg FTY720 (Novartis) that was administered as follows: CTLA4/FC and anti-CD48 were injected IP on days 0, 2, 4, 6, 21 and 35 while FTY720 was inoculated per OS for 5 days from day 0 to 5 and from day 6 till day 90 twice a week. Chimerism analysis was monitored every 30 days by FACS analysis. […]
Multilineage Chimerism was performed on donor chimera 70 to 163 days post transplant. […] Fluorescence-activated cell sorting (FACS) analysis was performed using a modified Becton Dickinson FACScan.

[2] = system: C57BL/6 (Ly-5.2) recipient mice; assay: Determination of the minimal myeloablation with busulphan: donor type chimerism after congenic T cell depleted bone marrow transplant; format: in vivo
From the text: Animals: 6-12 week old female mice were used of the following strains: C57BL/6 (B6, recipient, H-2b, Ly-5.2), B6.SJL-Ptprca Pep3b/BoyJ (congenic strain, donor, H-2b, Ly-5.1) Balb/c (donor, H-2d) and C3H/Hen (recipient, H-2k) mice (all purchased from Harlan Laboratories Ltd, Ein Kerem Breeding farm Jerusalem). All mice were housed under specific pathogen free conditions and maintained under conditions approved by the Institutional Animal Care and Use Committee at the Weizmann Institute of Science.
Determination of the minimal myeloablation with Busulphan: Different groups of C57BL/6 (Ly-5.2) recipient mice were conditioned with the following final doses of IV Busulfex (Otsuka America Pharmaceutical, Inc.): 10, 20, 40, 50, 60, 80, and 100 mg/Kg/mouse. The final doses of IV Busulfex were divided in two and administered (IP) on day −2 and −1. On day 0, 25×10^6 T-depleted bone marrow cells isolated from B6.SJL-Ptprca Pep3b/BoyJ (Ly-5.1) donors were transplanted (IV) and the establishment of donor type chimerism was defined 1 and 12 month post transplant in the blood, spleen, and BM by FACS analysis of the congenic donor marker (Ly-5.1). Phenotypic expression analysis of CD8, CD4, CD45/B220 and CD11b markers on the LY-5.1^+ (donor) cells in the spleen and the BM of the donor chimera, was performed 12 month post transplant.
Flow cytometry for chimerism and multilineage analysis: For chimerism analysis, blood mononuclear cells were stained with labeled antibodies specific for Host (H-2K^k-phycoerythrin (PE)) and donor (H-2D^d-fluorescein isothiocyanate (FITC)) MHC class-I antigens. In the congenic model, anti-CD45.2-PE and anti-CD45.1-FITC antibodies were used to distinguish between the host and the donor.
Considering the importance of providing empty niches for successful BM engraftment, the present inventors initially determined the minimal myeloablation with busulphan which induced durable chimerism following infusion of congenic B6-SJL (Ly-5.1) T cell depleted bone marrow (TDBM, 25×10^6) into B6 (Ly-5.2) mice. […] Consequently, the sublethal dose of 60 mg/Kg was selected for further use in all attempts to induce allogeneic chimerism, in conjunction with transient debulking of host lymphocytes by a single infusion of anti-CD4 and anti-CD8 depleting antibodies.

CCCCCCCCc1ccc(CCC(N)(CO)CO)cc1.Cl [FTY720, 2-amino-2-[2-(4-octylphenyl)ethyl]propane-1,3-diol hydrochloride]
chimerism achieved (in words) ([1]; allogeneic megadose TDBM after busulfan 60 mg/Kg plus anti-CD4/anti-CD8 debulking, post transplant treatment): no chimerism | mice with donor type chimerism (number of mice) ([1]; two independent experiments, median follow-up 116 days (range 70 to 163) beyond cessation of immune suppression, for the combination, mice with more than 80% chimerism): 0 out of 7

CS(=O)(=O)OCCCCOS(C)(=O)=O [busulphan]
donor type chimerism ([2]; at doses higher than 50 mg/Kg (tested 10 to 100 mg/Kg)): above 50% | donor type chimerism ([2]; busulphan 50 mg/Kg, congenic B6-SJL (Ly-5.1) TDBM 25x10^6 into B6 (Ly-5.2) mice): 40±26% | donor type chimerism ([2]; busulphan 60 mg/Kg, congenic B6-SJL (Ly-5.1) TDBM 25x10^6 into B6 (Ly-5.2) mice): 66±7% | donor type chimerism ([2]; busulphan 100 mg/Kg, congenic B6-SJL (Ly-5.1) TDBM 25x10^6 into B6 (Ly-5.2) mice): 75±2%
